Laboratory results as given in patent US20130297040A1, “IMPLANT HAVING A CORE AND A TUBE ENCASING THE CORE” (UNIVERSITE DE LIEGE, priority 2011, published 2013).

Assay: Pharmacokinetic study of celecoxib implants in Wistar rats

## NS(=O)(=O)c1ccc(-n2nc(C(F)(F)F)cc2-c2ccc(CO)cc2)cc1 [HO-celecoxib]
Celecoxib implant
  presence of the metabolite HO-celecoxib after implantation: present in the rats during more than two years
Peritoneal liquid
  concentration of HO-celecoxib in peritoneal liquid, intraperitoneal vs subcutaneous implant: tendency to a higher concentration
serum
  concentration of HO-celecoxib in serum, intraperitoneal vs subcutaneous implant: No differences

## NS(=O)(=O)c1ccc(-n2nc(C(F)(F)F)cc2-c2ccc(C(=O)O)cc2)cc1 [HOOC-celecoxib]
Celecoxib implant
  presence of the metabolite HOOC-celecoxib after implantation: present in the rats during more than two years
Serum and peritoneal liquid
  concentration of HOOC-celecoxib in the serum and in the PF, intraperitoneal vs subcutaneous implant: No differences

## Cc1ccc(-c2cc(C(F)(F)F)nn2-c2ccc(S(N)(=O)=O)cc2)cc1 [celecoxib, reference compound]
After implantation of celecoxib implant
  metabolism of celecoxib: metabolized in rats
